The values that follow come from the supplement of paper PMC8497498.

The subject of experiment [1] is Plasmodium vivax liver stage (primary human hepatocyte culture). The method, then: (§1)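 Dose-response of P. vivax liver stages in primary human hepatocytes, with 8 points (10 uM-[…], v1) or 12 points in duplicate (50 uM-280 pM, v2). Read-out is high-content imaging of schizont net growth area, hypnozoite quantity and hepatic nuclei. EC50 and CC20 (20% nuclei loss) were fitted in CDD Vault from the highest-quality independent experiment; toxic-dose bell-shaped points were masked. '>' marks the highest concentration with less than 50% activity, and ND means a non-sigmoidal curve.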

Experiment [2] shares this test system. The experiment is described as follows: maximum inhibition of schizont net growth area; higher = more active. The method, then:
as §1

Experiment [3] has as its system primary human hepatocytes. The experiment is described as follows: CC20 hepatic nuclei (20% reduction); higher = less toxic. The method, then:
as §1

The mark [4] stands for this setting: P. vivax isolate: Pv923, hepatocyte lot: BGW, assay mode: Radical Cure, 8-day (treatment from day 5 post-infection).
Setting [5] is: P. vivax isolate: Pv914, hepatocyte lot: BGW, assay mode: Prophylactic, 6-day.
[6] abbreviates: P. vivax isolate: Pv728, hepatocyte lot: BGW, assay mode: Radical Cure, 8-day (treatment from day 5 post-infection).
[7] abbreviates: P. vivax isolate: Pv756, hepatocyte lot: BGW, assay mode: Radical Cure, 8-day (treatment from day 5 post-infection).
[8] abbreviates: P. vivax isolate: Pv836, hepatocyte lot: BGW, assay mode: Radical Cure, 8-day (treatment from day 5 post-infection).
Where [9] appears, read: P. vivax isolate: Pv922, hepatocyte lot: BGW, assay mode: Radical Cure, 8-day (treatment from day 5 post-infection).
Where [10] appears, read: P. vivax isolate: Pv357, hepatocyte lot: UBV, assay mode: Radical Cure, 8-day (treatment from day 5 post-infection).
[11] abbreviates: P. vivax isolate: Pv360, hepatocyte lot: UBV, assay mode: Radical Cure, 8-day (treatment from day 5 post-infection).

Where a name gives a salt, the structure may show the parent alone. Some results are limits rather than exact numbers.

In the case of `Cc1ncc(-c2ccnc(Nc3ccc(S(C)(=O)=O)cc3)n2)n1C(C)C`, in experiment [1] (setting [4]), the EC50 hypnozoite quantity is greater than 50 µM and the “EC50 schizont net growth area” value is greater than 50000 nM. The maximum inhibition in experiment [2] (setting [4]) came out at 69.4%. The CC20 hepatic nuclei in experiment [3] (setting [4]) came to 1.82 µM.

Take `Cc1c(Oc2cnc(C(=O)N3CC(C)(O)C3)cn2)ccc2c1B(O)OC2`: in experiment [1] (setting [5]), the EC50 hypnozoite quantity was greater than 1.11 µM and the “EC50 schizont net growth area” value was 1630 nM. Further, in experiment [2] (setting [5]), the maximum inhibition came out at 99.7%. Besides, the CC20 hepatic nuclei in experiment [3] (setting [5]) was greater than 10 µM.

With `Cc1cc(Nc2ccc(C(F)(F)F)nc2)n2nc(C(C)(F)F)nc2n1`, in experiment [1] (setting [5]), the EC50 hypnozoite quantity is greater than 10 µM and the “EC50 schizont net growth area” value was determined as 325 nM. Moreover, in experiment [2] (setting [5]), the maximum inhibition worked out at 98.8%. The compound also had a CC20 hepatic nuclei in experiment [3] (setting [5]) greater than 10 µM.

For the compound `CCc1cc(=O)n(C)c(SC(C)C(=O)Nc2ccc(F)cc2)n1` (centres undefined), in experiment [1] (setting [4]), the EC50 hypnozoite quantity is greater than 50 µM and the “EC50 schizont net growth area” value is greater than 16700 nM. In experiment [2] (setting [4]), the maximum inhibition is 87.6%. The CC20 hepatic nuclei in experiment [3] (setting [4]) was greater than 50 µM.

Consider `CN(C)C(=S)NN=C1C(=O)Nc2ccccc21`, for which the “EC50 schizont net growth area” value in experiment [1] (setting [4]) was greater than 16700 nM. Besides, in experiment [2] (setting [4]), the maximum inhibition was 66.1%. Also, the CC20 hepatic nuclei in experiment [3] (setting [4]) worked out at 40.3 µM.

In the case of `COc1ccc(C(=O)C(CCC(CNC(C)(C)C)C(=O)c2ccc(OC)cc2)CNC(C)(C)C)cc1` (centres undefined), in experiment [1] (setting [6]), the EC50 hypnozoite quantity was greater than 50 µM and the “EC50 schizont net growth area” value stood at 16600 nM. The maximum inhibition in experiment [2] (setting [6]) was 88.7%. In experiment [3] (setting [6]), the CC20 hepatic nuclei amounted to 40.8 µM.

As to `COc1ccc(-c2cnc3ccc(N4CCCC4)nn23)cc1OC`, in experiment [1] (setting [7]), the EC50 hypnozoite quantity was greater than 50 µM and the “EC50 schizont net growth area” value was greater than 16700 nM. The maximum inhibition in experiment [2] (setting [7]) was determined as 103%. The compound further registered a CC20 hepatic nuclei in experiment [3] (setting [7]) greater than 16.7 µM.

The compound `COc1cccc(C=Cc2nc(=O)c3ccccc3o2)c1OC` had an EC50 hypnozoite quantity in experiment [1] (setting [5]) greater than 10 µM. The maximum inhibition in experiment [2] (setting [5]) worked out at 62.6%. For the same compound, the CC20 hepatic nuclei in experiment [3] (setting [5]) is greater than 10 µM.

For the compound `CS(=O)(=O)c1cccc(-c2cnc3[nH]cc(-c4ccc(CCC(=O)O)cc4)c3c2)c1`, in experiment [1] (setting [4]), the EC50 hypnozoite quantity was greater than 50 µM and the “EC50 schizont net growth area” value worked out at 418 nM. Also, the maximum inhibition in experiment [2] (setting [4]) worked out at 99.2%. Besides, the CC20 hepatic nuclei in experiment [3] (setting [4]) is greater than 50 µM.

In the case of `Cc1nc(Sc2ncnc3sc4c(c23)CCC4)sc1CC(N)=O`, in experiment [1] (setting [8]), the EC50 hypnozoite quantity is greater than 50 µM and the “EC50 schizont net growth area” value is 2860 nM. Also, in experiment [2] (setting [8]), the maximum inhibition stood at 91%. Also, the CC20 hepatic nuclei in experiment [3] (setting [8]) is greater than 50 µM.

Regarding `Cc1sc2ncnc(Sc3nnc(N)s3)c2c1C`, in experiment [1] (setting [9]), the EC50 hypnozoite quantity was greater than 50 µM and the “EC50 schizont net growth area” value is greater than 5560 nM. Besides, the maximum inhibition in experiment [2] (setting [9]) turned out to be 86.8%. In experiment [3] (setting [9]), this compound had a CC20 hepatic nuclei greater than 16.7 µM.

As for `O=C(Nc1ccc(N2CCNCC2)cc1)c1ccn2ncc(-c3cccc(Cl)c3)c2n1`, in experiment [1] (setting [4]), the EC50 hypnozoite quantity is greater than 50 µM and the “EC50 schizont net growth area” value was greater than 50000 nM. For the same compound, the maximum inhibition in experiment [2] (setting [4]) worked out at 45.8%. The compound further displayed a CC20 hepatic nuclei in experiment [3] (setting [4]) greater than 1.85 µM.

Take `Cn1c(Sc2ncnc3sccc23)nc2ccccc21`: in experiment [1] (setting [8]), the EC50 hypnozoite quantity was greater than 50 µM and the “EC50 schizont net growth area” value was greater than 16700 nM. Also, the maximum inhibition in experiment [2] (setting [8]) stood at 97%. The same compound gave a CC20 hepatic nuclei in experiment [3] (setting [8]) of 39.4 µM.

As for `O=C(Nc1cccnn1)N1CCC(=Cc2cccc(Oc3ccc(C(F)(F)F)cn3)c2)CC1`, in experiment [1] (setting [6]), the EC50 hypnozoite quantity is greater than 10 µM and the “EC50 schizont net growth area” value worked out at 1230 nM. The maximum inhibition in experiment [2] (setting [6]) was found to be 99%. The same compound had a CC20 hepatic nuclei in experiment [3] (setting [6]) greater than 10 µM.

The compound `O=C(Nc1cc(C(F)(F)F)cc(C(F)(F)F)c1)Nc1ccc(Cl)c(Cl)c1` had an EC50 hypnozoite quantity in experiment [1] (setting [9]) greater than 50 µM. The maximum inhibition in experiment [2] (setting [9]) came to 51.2%. In experiment [3] (setting [9]), the CC20 hepatic nuclei is greater than 5.56 µM.

As to `NS(=O)(=O)c1cccc(-c2ccc3ncc(N4CCOCC4)nc3c2)c1`, in experiment [1] (setting [7]), the EC50 hypnozoite quantity was greater than 50 µM and the “EC50 schizont net growth area” value stood at 570 nM. Also, the maximum inhibition in experiment [2] (setting [7]) turned out to be 88.2%. The CC20 hepatic nuclei in experiment [3] (setting [7]) was greater than 50 µM.

Consider `N=c1n(CCN2CCCCC2)c2ccccc2n1CC(O)c1cccc(Br)c1` (centres undefined), for which, in experiment [1] (setting [6]), the EC50 hypnozoite quantity is greater than 50 µM and the “EC50 schizont net growth area” value was greater than 16700 nM. Also, the maximum inhibition in experiment [2] (setting [6]) stood at 111%. In addition, in experiment [3] (setting [6]), the CC20 hepatic nuclei turned out to be 41.8 µM.

With `c1ccn2c(Sc3ncnc4sccc34)ncc2c1`, in experiment [1] (setting [8]), the EC50 hypnozoite quantity was greater than 50 µM and the “EC50 schizont net growth area” value is greater than 5560 nM. In experiment [2] (setting [8]), the maximum inhibition was found to be 69.4%. Also, the CC20 hepatic nuclei in experiment [3] (setting [8]) amounted to 41.4 µM.

On to `CN(Cc1cnc2nc(N)nc(N)c2n1)c1ccc(C(=O)N[C@@H](CCC(=O)O)C(=O)O)cc1` (racemic) [Methotrexate (+/-)], for which, in experiment [1] (setting [5]), the EC50 hypnozoite quantity is greater than 10 µM and the “EC50 schizont net growth area” value is 42.8 nM. In experiment [2] (setting [5]), the maximum inhibition is 99.1%. The CC20 hepatic nuclei in experiment [3] (setting [5]) is greater than 10 µM.

Consider `c1cc(C2CCC3(CC2)OOC2(O3)C3CC4CC(C3)CC2C4)ccc1OCCN1CCOCC1` (centres undefined) [Artefenomel, OZ439], for which, in experiment [1] (setting [6]), the EC50 hypnozoite quantity is greater than 50 µM and the “EC50 schizont net growth area” value worked out at 6890 nM. Besides, the maximum inhibition in experiment [2] (setting [6]) was 80.3%. Moreover, the CC20 hepatic nuclei in experiment [3] (setting [6]) was greater than 16.7 µM.

As to `CC(C)(N)CNC(=O)CC1CCC2(CC1)OOC1(O2)C2CC3CC(C2)CC1C3` (centres undefined) [Arterolane, OZ277], in experiment [1] (setting [10]), the EC50 hypnozoite quantity is greater than 10 µM and the “EC50 schizont net growth area” value was greater than 10000 nM. The maximum inhibition in experiment [2] (setting [10]) is 51.4%. The same compound registered a CC20 hepatic nuclei in experiment [3] (setting [10]) greater than 10 µM.

Regarding `CC[C@H]1OC(=O)[C@H](C)C(=O)[C@H](C)[C@@H](O[C@@H]2O[C@H](C)C[C@H](N(C)C)[C@H]2O)[C@](C)(OCC=Cc2cnc3ccccc3c2)C[C@@H](C)C(=O)[C@H](C)[C@H]2N=C(O)O[C@@]21C` [Cethromycin], the EC50 hypnozoite quantity in experiment [1] (setting [5]) was greater than 10 µM. Moreover, in experiment [2] (setting [5]), the maximum inhibition was determined as 63.3%. The CC20 hepatic nuclei in experiment [3] (setting [5]) is greater than 10 µM.

With `CCN(CC)CCCC(C)Nc1ccnc2cc(Cl)ccc12` (centres undefined) [Chloroquine Diphosphate], in experiment [1] (setting [5]), the EC50 hypnozoite quantity is greater than 16.7 µM and the “EC50 schizont net growth area” value is greater than 5560 nM. Also, in experiment [2] (setting [5]), the maximum inhibition worked out at 99.1%. This compound had a CC20 hepatic nuclei in experiment [3] (setting [5]) greater than 16.7 µM.

`O=C(O)c1cn(C2CC2)c2cc(N3CCNCC3)c(F)cc2c1=O` [Ciprofloxacin]: in experiment [1] (setting [6]), the EC50 hypnozoite quantity was greater than 10 µM and the “EC50 schizont net growth area” value was greater than 10000 nM. In addition, the maximum inhibition in experiment [2] (setting [6]) worked out at 59.2%. Moreover, in experiment [3] (setting [6]), the CC20 hepatic nuclei was greater than 10 µM.

For `CCC[C@@H]1C[C@@H](C(=O)N[C@@H]([C@H]2O[C@H](SC)[C@H](O)[C@@H](O)[C@H]2O)[C@H](C)Cl)N(C)C1` [Clindamycin hydrochloride], in experiment [1] (setting [5]), the EC50 hypnozoite quantity was greater than 50 µM and the “EC50 schizont net growth area” value was found to be 5.97 nM. In addition, the maximum inhibition in experiment [2] (setting [5]) came out at 79.5%. In addition, in experiment [3] (setting [5]), the CC20 hepatic nuclei is greater than 50 µM.

In the case of `CC1CC(C)C(=O)C(C(O)CC2CC(=O)NC(=O)C2)C1` (centres undefined) [Cycloheximide], the values for the EC50 hypnozoite quantity in experiment [1] (setting [11]) and in experiment [1] (setting [5]) were greater than 10 µM and greater than 3.33 µM, respectively. Also, the “EC50 schizont net growth area” value in experiment [1] (setting [11]) is 85.6 nM; in experiment [1] (setting [5]), 1390 nM. Also, the maximum inhibition in experiment [2] (setting [11]) stood at 96.3%; in experiment [2] (setting [5]), 99.6%. Moreover, the CC20 hepatic nuclei in experiment [3] (setting [11]) and in experiment [3] (setting [5]) was greater than 10 µM in each case.
